# Patent US10184137B2, “Method of producing isoprene monomer” (AJINOMOTO CO., INC., priority 2014, dated 2019)
# “And” between values parts separate entries of the source, which are not always exact repeats. Identical values can stand only once. Counter-ions that a name gives are not always drawn.
# B1: Methanocella paludicola mevalonate kinase (mpd), wild type, SEQ ID NO:1, N-terminal His-tag (Methanocella paludicola SANAE) (protein)
# chain: MTMCSAPGKVFLFGEHAVVYGKRAIACAIDLRTTVEVSRKSRGVHIHSAFKDEPDKNLYIKTAVKRMQKCADIRNVNIAVSSRIPVASGLGSSAAVTVATIGALNEEFSAGLSKKDIAYMAYQTELEVQGAASPTDTFVSTMGGTVVVPDMRTLPPITCGIVVGHTGISKSTSRMVSRVRTLKEKYPDVIDGIMDSIGDISARGEDLIKQNDYRSIGELMNVNQGLLDALGITIPELSLQIYAARQHGAYGAKITGAGGGGCMVAICDDKNCKEIATAIGRSYGDSFISKPTAEGIFIQ
# B2: nmr: mevalonate kinase derived from Nitrosopumilus maritimus (SEQ ID NO:9), His-tagged purified enzyme (protein, listed as Nitrosopumilus maritimus)
# chain: MKSKASAPGKVILFGEHFVVYGVKAILCAINKRIAVTAEKIDERKISIKSNIGHLELEPNKPISEINSPLKPFYYLANKIIQDKNFGIKIDVESEIPLGVGLGSSSACCVAGAAAISNLFENNSKEEILKLAIEAEKTIFQNTSGADCTVCTFGGLMEYDKENGFSKIESEPNFHLVIANSNVEHSTESVVAGVRKFKKNNEAEFSKLCKDESHLIENVLELLKENNIRELGERVIKNQEYLERIGISNAKLREMIQTGQNSSFGAKITGAGGGGCIFALTDESNLENTIKEFKEKNHECFSVKIDFKGLDTF
# modifications: His-tag
# Key:
# [1] = target: Corynebacterium variabile mevalonate kinase (cva), wild type, SEQ ID NO:3, N-terminal His-tag (Corynebacterium variabile, UniProt A0A0X2NLH5); experiment: Inhibition of cva-derived mevalonate kinase by DMAPP, GPP, FPP or DPM; type: biochemical
# Chain of Corynebacterium variabile mevalonate kinase (cva), wild type, SEQ ID NO:3, N-terminal His-tag (A0A0X2NLH5 entry or part of it): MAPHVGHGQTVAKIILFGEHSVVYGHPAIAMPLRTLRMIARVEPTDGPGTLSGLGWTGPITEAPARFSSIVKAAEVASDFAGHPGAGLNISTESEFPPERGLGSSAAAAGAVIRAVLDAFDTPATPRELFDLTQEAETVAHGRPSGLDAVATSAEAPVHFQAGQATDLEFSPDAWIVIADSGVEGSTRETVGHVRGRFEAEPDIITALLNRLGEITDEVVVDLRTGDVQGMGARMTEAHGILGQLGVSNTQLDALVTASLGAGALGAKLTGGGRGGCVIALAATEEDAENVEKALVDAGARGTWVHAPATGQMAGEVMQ
# Description: (§1) Km value was calculated by Lineweaver-Burk plot.
# (§2) Since GPP and FPP solutions contain methanol, methanol which was needed to keep the same methanol level at the addition to the reaction system was added to the reaction solution, which was designated as control.
# (§3) Effect of 1 mM diphosphomevalonate (DPM) on each enzyme was also studied.
# [2] = target: T1, Methanosaeta concilii mevalonate kinase (mcl), wild type, SEQ ID NO:6, N-terminal His-tag (Methanothrix soehngenii, UniProt F4BZB3); experiment: Inhibition of mcl-derived mevalonate kinase by DMAPP, GPP, FPP or DPM; type: biochemical
# T1 sequence (F4BZB3 1-317): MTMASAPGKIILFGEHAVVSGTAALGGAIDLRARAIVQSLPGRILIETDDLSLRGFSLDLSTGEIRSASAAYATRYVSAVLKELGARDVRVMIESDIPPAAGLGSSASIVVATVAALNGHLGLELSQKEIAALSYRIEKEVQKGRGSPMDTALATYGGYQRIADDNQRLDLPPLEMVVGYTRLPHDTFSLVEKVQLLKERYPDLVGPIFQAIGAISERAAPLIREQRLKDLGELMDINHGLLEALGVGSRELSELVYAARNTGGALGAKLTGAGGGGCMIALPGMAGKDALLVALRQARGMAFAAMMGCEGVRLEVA
# Description: as §1, §2, §3
# [3] = target: T2, Methanosarcina mazei mevalonate kinase (mma), wild type, SEQ ID NO:12, N-terminal His-tag (Methanosarcina mazei, UniProt Q8PW39); experiment: Inhibition of mma-derived mevalonate kinase by DMAPP, GPP, FPP or DPM; type: biochemical
# T2 sequence (Q8PW39 1-301): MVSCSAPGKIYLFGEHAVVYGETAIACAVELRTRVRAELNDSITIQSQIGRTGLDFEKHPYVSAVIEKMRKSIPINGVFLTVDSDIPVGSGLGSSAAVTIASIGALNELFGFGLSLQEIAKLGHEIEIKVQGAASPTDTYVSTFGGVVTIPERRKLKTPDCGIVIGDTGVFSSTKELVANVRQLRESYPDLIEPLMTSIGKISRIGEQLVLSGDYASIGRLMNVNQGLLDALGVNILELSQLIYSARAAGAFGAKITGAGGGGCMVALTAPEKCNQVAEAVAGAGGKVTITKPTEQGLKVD
# Description: as §1, §2, §3
# [4] = target: Methanocella paludicola mevalonate kinase (mpd), wild type, SEQ ID NO:1, N-terminal His-tag (Methanocella paludicola, UniProt D1YZ39); experiment: Inhibition of mpd-derived mevalonate kinase by DMAPP, GPP, FPP or DPM; type: biochemical
# Description: as §1, §2, §3
# [5] = target: Nitrosopumilus maritimus mevalonate kinase (nmr), wild type, SEQ ID NO:9, N-terminal His-tag (Nitrosopumilus maritimus, UniProt A9A427); experiment: Inhibition of nmr-derived mevalonate kinase by DMAPP, GPP, FPP or DPM; type: biochemical
# Description: as §1, §2, §3
# [6] = target: T1, Methanosaeta concilii mevalonate kinase (mcl), wild type, SEQ ID NO:6, N-terminal His-tag; experiment: biochemical
# [7] = substrate: Nc1ncnc2c1ncn2[C@@H]1O[C@H](COP(=O)(O)OP(=O)(O)OP(=O)(O)O)[C@@H](O)[C@H]1O; experiment: purified protein, by the assay type; conditions: other: mpd, 5 mM potassium mevalonate, pH 7.6, 30° C., Lineweaver-Burk plot
# Description: Each obtained plasmid was used for transformation of E. coli BL21(DE3). […] When OD600 reached approximately 0.5, 0.1 mM IPTG (for cva, mma, nmr, and sce) or 1 mM (for mcl and mpd) of IPTG was added, and then the mixture was kept at 20° C. overnight to induce the target protein. […] After centrifugation (28,000×g, 30 min), the supernatant was adsorbed onto His-Trap HP (GE Healthcare) to elute the target protein by linear concentration gradient of Imidazol (final concentration 0.5 M). Obtained protein was dialyzed by using an external solution composed of 20 mM Tris-HCl (pH 8.0) containing 1 mM DTT and 50 mM NaCl. Dialyzed protein was designated as purified enzyme. Protein quantity was measured with Bio-RAD protein assay kit and BSA standard condition.
# Decrease in absorbance at 340 nm at 30° C. was measured to determine the enzyme activity. JASCO Corporation's spectrophotometer (V-650) was used in this study. […] Km value was calculated by Lineweaver-Burk plot.
# [8] = system: mevalonate kinase; experiment: Expression analysis and activity confirmation of His-tagged mevalonate kinases from pET-21a(+) and pET-28b(+); type: biochemical; conditions: His-spinTrap eluate after dialysis, 10 μl enzyme solution
# Description: Each obtained plasmid was used for transformation of E. coli BL21(DE3). […] When OD600 reached approximately 0.5, IPTG was added to the solution to final concentration of 1 mM. It was then cultured overnight at 20° C. Harvested cells were suspended in the buffer solution consisting of 50 mM sodium phosphate, 0.3 M NaCl and 20 mM Imidazol. Then the cells were disrupted with an ultrasonic disruptor (TOMY: UD-201, output level=3.5). After centrifugation (20,000×g, 20 min), disrupted cells were adsorbed to His-spinTrap (GE Healthcare). After washing with the same buffer solution, protein was eluted with the buffer solution consisting of 50 mM sodium phosphate, 0.3 M NaCl and 0.5 M imidazole (pH7.5). Eluate was dialyzed overnight at 4° C. with the external solution composed of 20 mM Tris-HCl (pH7.5) and 50 mM NaCl. Then, enzyme activity of each eluate in the internal dialysis solution was measured.
# Activity of the internal dialysate (about 0.2 ml each) was measured with the 10 μl of enzyme solution (Table 8). Enzyme expression level was compared on activity basis between pET-21a(+) and pET-28b(+). […] It is inferred that expression level is higher in pET-28b(+). Therefore, purified enzyme expressed in pET-28b(+) was used in the further examinations.
# Values were presented by decrease in absorbance per unit time per 10 μl in the enzyme reaction measurement system (dABS/min/10 μl).
# (§4) Decrease in absorbance at 340 nm at 30° C. was measured to determine the enzyme activity. JASCO Corporation's spectrophotometer (V-650) was used in this study. Millimolar extinction coefficient of NADH used in this study was 6.22 mM^−1 cm^−1. […] Km value was calculated by Lineweaver-Burk plot.
# [9] = system: mevalonate kinase; experiment: Measurement of activity and Km value of purified mevalonate kinase (PK/LDH coupled, 340 nm); type: biochemical; conditions: 10 μl enzyme in 1 ml, replicate values
# Description: Each obtained plasmid was used for transformation of E. coli BL21(DE3). […] When OD600 reached approximately 0.5, 0.1 mM IPTG (for cva, mma, nmr, and sce) or 1 mM (for mcl and mpd) of IPTG was added, and then the mixture was kept at 20° C. overnight to induce the target protein. Harvested cells were suspended in buffer solution A (50 mM sodium phosphate, 0.3 M NaCl and 20 mM Imidazol), and then the cells were disrupted with an ultrasonic disruptor (TOMY: UD-201). […] After centrifugation (28,000×g, 30 min), the supernatant was adsorbed onto His-Trap HP (GE Healthcare) to elute the target protein by linear concentration gradient of Imidazol (final concentration 0.5 M). Obtained protein was dialyzed by using an external solution composed of 20 mM Tris-HCl (pH 8.0) containing 1 mM DTT and 50 mM NaCl. Dialyzed protein was designated as purified enzyme. Protein quantity was measured with Bio-RAD protein assay kit and BSA standard condition.
# as §4
# Measured activity of each enzyme (JABS/min) was presented on Table 9 for the calculation of apparent Km value (Km app.) of each enzyme. Table 10 presents Km app., Vmax, molecular weight of the enzyme protein, protein concentration in the enzyme solution and calculated kcat.
# Activity was indicated by dABS/min when 10 μl of each enzyme was added to 1 ml of reaction solution.
# [10] = system: mevalonate kinase; experiment: Inhibition of each mevalonate kinase by DMAPP, GPP, FPP or DPM; type: biochemical
# Description: as §2
# Respective effect of the added 5 mM DMAPP, 0.1 mM GPP, and 0.1 mM FPP on the activity of each enzyme was measured. […] Contrarily, mcl-derived enzyme was activated by 5 mM DMAPP and its activity increased by 20% from that of the control.
# Activity when 10 μl of each enzyme was added to 1 ml of the reaction system was represented by dABS/min
# as §3
# [11] = system: mevalonate kinase; experiment: Examination of product inhibition on each mevalonate kinase (absorbance at 386 nm, PMK addition); type: biochemical; conditions: in words
# Description: When decrease in absorbance stopped, purified PMK was added to measure further decrease in absorbance at 386 nm.
# FIG. 18 presents the SDS-PAGE profile of the purified PMK. […] Then, absorbance decreased further and finally absorbance at 386 nm decreased to 0.3 in all reaction systems. Therefore, it is inferred that mevalonate is converted into diphosphomevalonate via phosphomevalonate by adding PMK to each MVK.
molecule,measurement,setting,value
"CC(C)=CCC/C(C)=C/CC/C(C)=C/COP(=O)(O)OP(=O)(O)O [FPP, farnesyl pyrophosphate ammonium salt]",Inhibition by FPP,[1]; 0.1 mM FPP,inhibited
same,Enzyme activity with 0.1 mM FPP,"[1]; 0.1 mM FPP, control 0.08338",0.04775 dABS/min
same,Inhibition by FPP,"[2]; mcl, 0.1 mM FPP",no other enzymes were inhibited strongly
same,Enzyme activity with 0.1 mM FPP,"[2]; mcl, 0.1 mM FPP, control 0.1482",0.1562 dABS/min
same,Inhibition by FPP,[3]; 0.1 mM FPP,no other enzymes were inhibited strongly
same,Enzyme activity with 0.1 mM FPP,"[3]; 0.1 mM FPP, control 0.21",0.2059 dABS/min
same,Inhibition by FPP,[4]; 0.1 mM FPP,no other enzymes were inhibited strongly
same,Enzyme activity with 0.1 mM FPP,"[4]; 0.1 mM FPP, control 0.15734",0.1594 dABS/min
same,Inhibition by FPP,[5]; 0.1 mM FPP,no other enzymes were inhibited strongly
same,Enzyme activity with 0.1 mM FPP,"[5]; 0.1 mM FPP, control 0.2438",0.224 dABS/min
"C=C(C)CCOP(=O)(O)OP(=O)(O)O.N.N.N [IPP, Isopentenyl pyrophosphate tri-ammonium salt]",Enzyme activity with 33.6 μM IPP,"[6]; mcl, 33.6 μM IPP, control (MeOH) 0.15939",0.158 dABS/min
same,Enzyme activity with 168 μM IPP,"[6]; mcl, 168 μM IPP, control (MeOH) 0.15939",0.1606 dABS/min
"CC(C)=CCC/C(C)=C/COP(=O)(O)OP(=O)(O)O [GPP, geranyl phyrophosphate ammonium salt]",Enzyme activity with 0.1 mM GPP,"[1]; 0.1 mM GPP, control 0.08338",0.07532 dABS/min
same,Enzyme activity with 0.1 mM GPP,"[2]; mcl, 0.1 mM GPP, control 0.1482",0.1538 dABS/min
same,Enzyme activity with 0.1 mM GPP,"[3]; 0.1 mM GPP, control 0.21",0.2009 dABS/min
same,Enzyme activity with 0.1 mM GPP,"[4]; 0.1 mM GPP, control 0.15734",0.1589 dABS/min
same,Enzyme activity with 0.1 mM GPP,"[5]; 0.1 mM GPP, control 0.2438",0.2427 dABS/min
"CC(C)=CCOP(=O)(O)OP(=O)(O)O.N.N.N [DMAPP, Dimethylallyl diphosphate ammonium salt]",Enzyme activity with 5 mM DMAPP,"[1]; 5 mM DMAPP, control 0.08338",0.0786 dABS/min
same,Enzyme activity with 5 mM DMAPP,"[2]; mcl, 5 mM DMAPP, control 0.1482",0.1806 dABS/min
same,activation at 5000 µM,[2]; read-out: Increase of activity from that of the control,20%
same,Enzyme activity with 5 mM DMAPP,"[3]; 5 mM DMAPP, control 0.21",0.1904 dABS/min
same,Enzyme activity with 5 mM DMAPP,"[4]; 5 mM DMAPP, control 0.15734",0.1528 dABS/min
same,Enzyme activity with 5 mM DMAPP,"[5]; 5 mM DMAPP, control 0.2438",0.231 dABS/min
same,Enzyme activity with 33.6 μM DMAPP,"[6]; mcl, 33.6 μM DMAPP, control (H2O) 0.15403",0.1527 dABS/min
same,Enzyme activity with 168 μM DMAPP,"[6]; mcl, 168 μM DMAPP, control (H2O) 0.15403",0.1552 dABS/min
same,activation at 5000 µM,[6]; read-out: Increase of relative activity,20%
B1,Km,[7],119 ± 2.1 µM
B2,"enzyme activity, pET21 system (C terminal Tag)",[8],0.137 dABS/min/10 μl
same,"enzyme activity, pET28 system (N terminal Tag)",[8],0.247 dABS/min/10 μl
same,dABS/min at ATP 0.04 mM,"[9]; ATP 0.04 mM, potassium mevalonate 5 mM",0.007781 dABS/min and 0.00767 dABS/min and 0.007932 dABS/min
same,dABS/min at ATP 0.2 mM,"[9]; ATP 0.2 mM, potassium mevalonate 5 mM",0.03637 dABS/min and 0.03629 dABS/min and 0.03625 dABS/min
same,dABS/min at ATP 1 mM,"[9]; ATP 1 mM, potassium mevalonate 5 mM",0.1089 dABS/min and 0.1084 dABS/min and 0.1085 dABS/min
same,dABS/min at mev 0.04 mM,"[9]; potassium mevalonate 0.04 mM, ATP 5 mM",0.01691 dABS/min and 0.01687 dABS/min and 0.0168 dABS/min
same,dABS/min at mev 0.2 mM,"[9]; potassium mevalonate 0.2 mM, ATP 5 mM",0.06788 dABS/min and 0.06784 dABS/min and 0.06777 dABS/min
same,dABS/min at mev 1 mM,"[9]; potassium mevalonate 1 mM, ATP 5 mM",0.1521 dABS/min and 0.1522 dABS/min and 0.153 dABS/min
same,"enzyme activity, Control",[10]; Table 11 control without terpenyl diphosphate (methanol added),0.2438 dABS/min
same,"enzyme activity, Control",[10]; Table 12 control without DPM,0.2064 dABS/min
same,course of decrease in absorbance at 386 nm until PMK addition,[11]; 1 mM mevalonate as substrate,decrease in the rate of reaction associated with the progression of reaction
same,DPM-induced inhibition,[11],not observed
